Results: US20240315992A1, “AMINOXY ACID-BASED ANTIBACTERIAL COMPOUNDS AND METHODS THEREOF” (The University of Hong Kong, priority 2023, published 2024)
≈ marks a conversion by molar mass, not a printed value.

system: multidrug resistant Staphylococcus aureus Mu3; test: MIC by CLSI broth micro-dilution, MRSA Mu3; type: cell-based; conditions: MRSA, CLSI broth micro-dilution, CAMH, read-out: Minimum inhibitory concentration (μM) in MRSA Mu3
Experimental: Aminoxy acids were synthesized by the standard peptide coupling procedures. Minimum inhibitory concentration was determined using CLSI broth micro-dilution method in 96-wells microtitre plates. Minimum inhibitory concentration is defined as the lowest concentration of the compound that inhibits visible growth of the bacteria. All experiments were performed three times. 24 compounds including aminoxy acid monomers and dipeptides have been identified to show toxicity against multidrug resistant Staphylococcus aureus Mu3 and summarized in Table 1. The minimum inhibitory concentration of compound 8 and compound 35 on other gram-positive bacteria was also evaluated and summarized in Table 2. […] As shown in FIGS. 3A-3B there are no observable hemolysis for compound 8 and compound 35 towards human red blood cell.
Bacteria were streaked from the glycerol stock into BHI agar and were incubated overnight. Single colony was picked for the overnight culture in cation-adjusted Mueller Hinton broth (CAMH), LB or BHI. The overnight culture was sub-cultured and regrew to exponential phase for the experiment.
MIC was determined by CLSI broth micro-dilution method in 96-wells microtitre plates. For compounds dissolved in water, 100 μL of 2× testing concentration was added to the first well of each column, followed by two-fold serial dilution for successive wells with 50 μL medium. For chemical compounds dissolved in DMSO, the compounds were two-fold serial diluted by DMSO in a DMSO-compatible 96-well plate. 1 μL of compound in DMSO was transferred into 96-wells microtitre plate containing 50 μL medium to give 2× testing concentration. An overnight culture of bacteria was grown into exponential phase. The bacteria culture was diluted to 1×10^6 CFU/mL and 50 μL of diluted culture were added into each well. The test plates were kept in a 37° C. incubator overnight. Optical density was recorded by DTX 880 multimode detector (Beckman Coulter, California, US). MIC is defined as the lowest concentration of the compound that inhibits visible growth of bacteria. Biological replicates were performed. CAMH was used for bacteria culture and MIC test except S. pneumoniae, L. monocytogenes, E. faecalis and M. smegmatis for which BHI was used as culture medium

MIC [µM]	SMILES
6.25 (≈ 4.46 µg/mL)	CC(C)C[C@H](ONC(=O)[C@@H](COCc1ccccc1)ONC(=O)c1cc(C(F)(F)F)cc(C(F)(F)F)c1)C(=O)NC12CC3CC(CC(C3)C1)C2 [Compound 26]
> 12.5	CC(C)C[C@H](ONC(=O)[C@@H](COCc1ccccc1)ONC(=O)c1cc(C(F)(F)F)cc(C(F)(F)F)c1)C(=O)Nc1cncnc1 [Compound 27]
> 12.5	CC(C)C[C@H](ONC(=O)[C@@H](COCc1ccccc1)ONC(=O)c1cc(C(F)(F)F)cc(C(F)(F)F)c1)C(=O)NC1CC1 [Compound 28]
6.25 (≈ 4.29 µg/mL)	COc1ccc(NC(=O)[C@H](CC(C)C)ONC(=O)[C@@H](COCc2ccccc2)ONC(=O)c2cc(C(F)(F)F)cc(C(F)(F)F)c2)cc1 [Compound 29]
3.13 (≈ 2.14 µg/mL)	Cc1cc(C)cc(NC(=O)[C@H](CC(C)C)ONC(=O)[C@@H](COCc2ccccc2)ONC(=O)c2cc(C(F)(F)F)cc(C(F)(F)F)c2)c1 [Compound 31]
> 12.5	CC(C)C[C@H](ONC(=O)[C@@H](COCc1ccccc1)ONC(=O)c1cc(C(F)(F)F)cc(C(F)(F)F)c1)C(=O)N1CCOCC1 [Compound 32]
> 12.5	CC(C)C[C@H](ONC(=O)[C@@H](COCc1ccccc1)ONC(=O)c1cc(C(F)(F)F)cc(C(F)(F)F)c1)C(=O)Nc1ccc(N2CCOCC2)cc1 [Compound 33]
6.25 (≈ 4.37 µg/mL)	CC(C)C[C@H](ONC(=O)[C@@H](COCc1ccccc1)ONC(=O)c1cc(C(F)(F)F)cc(C(F)(F)F)c1)C(=O)Nc1ccc2c(c1)OCO2 [Compound 34]
3.13 (≈ 2.11 µg/mL)	CC(C)C[C@H](ONC(=O)[C@@H](COCc1ccccc1)ONC(=O)c1cc(C(F)(F)F)cc(C(F)(F)F)c1)C(=O)Nc1ccc(F)cc1 [Compound 36]
6.25 (≈ 4.25 µg/mL)	CC(C)C[C@H](ONC(=O)[C@@H](COCc1ccccc1)ONC(=O)c1cc(C(F)(F)F)cc(C(F)(F)F)c1)C(=O)Nc1ccc(C#N)cc1 [Compound 37]
1.56 (≈ 1.13 µg/mL)	CC(C)C[C@H](ONC(=O)[C@@H](COCc1ccccc1)ONC(=O)c1cc(C(F)(F)F)cc(C(F)(F)F)c1)C(=O)Nc1ccc(C(F)(F)F)cc1 [Compound 38]
1.56 (≈ 1.1 µg/mL)	CC(C)C[C@H](ONC(=O)[C@@H](COCc1ccccc1)ONC(=O)c1cc(C(F)(F)F)cc(C(F)(F)F)c1)C(=O)Nc1ccc2ccccc2c1 [Compound 39]
> 12.5	CC(C)C[C@H](ONC(=O)[C@@H](COCc1ccccc1)ONC(=O)c1cc(C(F)(F)F)cc(C(F)(F)F)c1)C(=O)NOCc1ccccc1 [Compound 40]
> 12.5	CC(C)C[C@H](ONC(=O)[C@@H](COCc1ccccc1)ONC(=O)c1cc(C(F)(F)F)cc(C(F)(F)F)c1)C(=O)NOc1ccccc1 [Compound 41]
> 12.5	CC(C)C[C@H](ONC(=O)[C@@H](COCc1ccccc1)ONC(=O)C(C)(C)C)C(=O)Nc1ccc2c(c1)OC(F)(F)O2 [Compound 42]
> 12.5	CC(C)C[C@H](ONC(=O)[C@@H](COCc1ccccc1)ONC(=O)C12CC3CC(CC(C3)C1)C2)C(=O)Nc1ccc2c(c1)OC(F)(F)O2 [Compound 43]
> 12.5	CC(C)C[C@H](ONC(=O)[C@@H](COCc1ccccc1)ONC(=O)c1ccccc1)C(=O)Nc1ccc2c(c1)OC(F)(F)O2 [Compound 44]
> 12.5	Cc1cc(C)cc(C(=O)NO[C@H](COCc2ccccc2)C(=O)NO[C@@H](CC(C)C)C(=O)Nc2ccc3c(c2)OC(F)(F)O3)c1 [Compound 45]
> 12.5	CC(C)C[C@H](ONC(=O)[C@@H](COCc1ccccc1)ONC(=O)c1ccc2ccccc2c1)C(=O)Nc1ccc2c(c1)OC(F)(F)O2 [Compound 46]
> 12.5	CC(C)C[C@H](ONC(=O)[C@@H](COCc1ccccc1)ONC(=O)c1ccc(F)cc1)C(=O)Nc1ccc2c(c1)OC(F)(F)O2 [Compound 47]
> 12.5	CC(C)C[C@H](ONC(=O)[C@@H](COCc1ccccc1)ONC(=O)c1c(F)cccc1F)C(=O)Nc1ccc2c(c1)OC(F)(F)O2 [Compound 48]
> 12.5	CC(C)C[C@H](ONC(=O)[C@@H](COCc1ccccc1)ONC(=O)c1cccc2cccnc12)C(=O)Nc1ccc2c(c1)OC(F)(F)O2 [Compound 49]
> 12.5	Cc1noc(C)c1C(=O)NO[C@H](COCc1ccccc1)C(=O)NO[C@@H](CC(C)C)C(=O)Nc1ccc2c(c1)OC(F)(F)O2 [Compound 50]
> 12.5	CC(C)C[C@H](ONC(=O)[C@@H](COCc1ccccc1)ONC(=O)c1ccc[nH]1)C(=O)Nc1ccc2c(c1)OC(F)(F)O2 [Compound 51]
3.13 (≈ 2.13 µg/mL)	CC(C)C[C@H](ONC(=O)[C@@H](COCc1ccccc1)ONC(=O)c1ccc2c(c1)OC(F)(F)O2)C(=O)Nc1ccc2c(c1)OC(F)(F)O2 [Compound 52]
> 12.5	Cc1ccc(S(=O)(=O)NO[C@H](COCc2ccccc2)C(=O)NO[C@@H](CC(C)C)C(=O)Nc2ccc3c(c2)OC(F)(F)O3)cc1 [Compound 53]

The remaining lines, values behind:

SMILES	MIC [µM]
CC(C)(C)OC(=O)[C@@H](COCc1ccccc1)ONC(=O)c1cc(C(F)(F)F)cc(C(F)(F)F)c1 [Compound 1]	12.5 (≈ 6.34 µg/mL)
O=C(NO[C@H](COCc1ccccc1)C(=O)Nc1ccccc1)c1cc(C(F)(F)F)cc(C(F)(F)F)c1 [Compound 2]	6.25 (≈ 3.29 µg/mL)
CC(C)C[C@@H](ONC(=O)c1cc(C(F)(F)F)cc(C(F)(F)F)c1)C(=O)Nc1ccccc1 [Compound 3]	3.13 (≈ 1.45 µg/mL)
CC(C)(C)OC(=O)[C@@H](COCc1ccccc1)ONC(=O)[C@@H](COCc1ccccc1)ONC(=O)c1cc(C(F)(F)F)cc(C(F)(F)F)c1 [Compound 4]	> 12.5
CC(C)C[C@H](ONC(=O)[C@@H](COCc1ccccc1)ONC(=O)c1cc(C(F)(F)F)cc(C(F)(F)F)c1)C(=O)OC(C)(C)C [Compound 5]	> 12.5
CC(C)C[C@H](ONC(=O)[C@H](COCc1ccccc1)ONC(=O)c1cc(C(F)(F)F)cc(C(F)(F)F)c1)C(=O)Nc1ccccc1 [Compound 6]	3.13 (≈ 2.05 µg/mL)
CC(C)C[C@@H](ONC(=O)[C@H](COCc1ccccc1)ONC(=O)c1cc(C(F)(F)F)cc(C(F)(F)F)c1)C(=O)Nc1ccccc1 [Compound 7]	3.13 (≈ 2.05 µg/mL)
CC(C)C[C@@H](ONC(=O)[C@@H](COCc1ccccc1)ONC(=O)c1cc(C(F)(F)F)cc(C(F)(F)F)c1)C(=O)Nc1ccccc1 [Compound 9]	3.13 (≈ 2.05 µg/mL)
O=C(NO[C@H](COCc1ccccc1)C(=O)NO[C@H](Cc1c[nH]c2ccccc12)C(=O)Nc1ccccc1)c1cc(C(F)(F)F)cc(C(F)(F)F)c1 [Compound 10]	6.25 (≈ 4.55 µg/mL)
O=C(NO[C@H](COCc1ccccc1)C(=O)NO[C@@H](Cc1ccccc1)C(=O)Nc1ccccc1)c1cc(C(F)(F)F)cc(C(F)(F)F)c1 [Compound 11]	3.13 (≈ 2.16 µg/mL)
O=C(NO[C@H](COCc1ccccc1)C(=O)NO[C@H](COCc1ccccc1)C(=O)Nc1ccccc1)c1cc(C(F)(F)F)cc(C(F)(F)F)c1 [Compound 12]	3.13 (≈ 2.25 µg/mL)
CC(C)(C)OC[C@@H](ONC(=O)[C@@H](COCc1ccccc1)ONC(=O)c1cc(C(F)(F)F)cc(C(F)(F)F)c1)C(=O)Nc1ccccc1 [Compound 13]	6.25 (≈ 4.29 µg/mL)
CC(C)(C)OC(=O)C[C@@H](ONC(=O)[C@@H](COCc1ccccc1)ONC(=O)c1cc(C(F)(F)F)cc(C(F)(F)F)c1)C(=O)Nc1ccccc1 [Compound 14]	3.13 (≈ 2.23 µg/mL)
O=C(NO[C@H](COCc1ccccc1)C(=O)NO[C@H](CO)C(=O)Nc1ccccc1)c1cc(C(F)(F)F)cc(C(F)(F)F)c1 [Compound 15]	> 12.5
O=C(CONC(=O)[C@@H](COCc1ccccc1)ONC(=O)c1cc(C(F)(F)F)cc(C(F)(F)F)c1)Nc1ccccc1 [Compound 16]	> 12.5
C[C@@H](ONC(=O)[C@@H](COCc1ccccc1)ONC(=O)c1cc(C(F)(F)F)cc(C(F)(F)F)c1)C(=O)Nc1ccccc1 [Compound 17]	> 12.5
O=C(O)C[C@@H](ONC(=O)[C@@H](COCc1ccccc1)ONC(=O)c1cc(C(F)(F)F)cc(C(F)(F)F)c1)C(=O)Nc1ccccc1 [Compound 18]	> 12.5
CC(C)(C)OC(=O)NCCCC[C@@H](ONC(=O)[C@@H](COCc1ccccc1)ONC(=O)c1cc(C(F)(F)F)cc(C(F)(F)F)c1)C(=O)Nc1ccccc1 [Compound 19]	12.5 (≈ 9.63 µg/mL)
NCCCC[C@@H](ONC(=O)[C@@H](COCc1ccccc1)ONC(=O)c1cc(C(F)(F)F)cc(C(F)(F)F)c1)C(=O)Nc1ccccc1 [Compound 20]	> 12.5
CC(C)C[C@H](ONC(=O)[C@@H](COCc1ccccc1)ONC(=O)c1cc(C(F)(F)F)cc(C(F)(F)F)c1)C(=O)Nc1nccs1 [Compound 21]	> 12.5
CC(C)C[C@H](ONC(=O)[C@@H](COCc1ccccc1)ONC(=O)c1cc(C(F)(F)F)cc(C(F)(F)F)c1)C(=O)NC1CCCCC1 [Compound 22]	> 12.5
CC(C)C[C@H](ONC(=O)[C@@H](COCc1ccccc1)ONC(=O)c1cc(C(F)(F)F)cc(C(F)(F)F)c1)C(=O)Nc1ccc2cc[nH]c2c1 [Compound 23]	> 12.5
CC(C)CNC(=O)[C@H](CC(C)C)ONC(=O)[C@@H](COCc1ccccc1)ONC(=O)c1cc(C(F)(F)F)cc(C(F)(F)F)c1 [Compound 24]	> 12.5
CC(C)C[C@H](ONC(=O)[C@@H](COCc1ccccc1)ONC(=O)c1cc(C(F)(F)F)cc(C(F)(F)F)c1)C(=O)Nc1cccc2cc[nH]c12 [Compound 25]	6.25 (≈ 4.34 µg/mL)
